# Source: ChEMBL document CHEMBL5614398, “A comprehensive review of new small molecule drugs approved by the FDA in 2022: Advance and prospect” (Eur J Med Chem, 2024)
# Experiments:
# [1] = molecular target: Lanosterol 14-alpha demethylase (Candida albicans (strain SC5314 / ATCC MYA-2876) (Yeast), UniProt P10613); assay: Binding affinity to Candida albicans SC5314 CYP51 assessed as dissociation constant
# [2] = molecular target: Structural capsid protein (Human immunodeficiency virus 1, UniProt Q76129); assay: Inhibition of HIV-1 NL4-3 monomeric capsid protein
# [3] = Half life in human; type: ADME
# [4] = molecular target: GABA-A receptor; anion channel; assay: Binding affinity to GABAA receptor (unknown origin) assessed as inhibition constant; type: protein-complex assay, Homo sapiens
# [5] = molecular target: Tyrosine-protein kinase JAK2 (Homo sapiens, UniProt O60674); assay: Inhibition of N-terminal human recombinant JAK2 using poly(Glu,Ala,Tyr) as substrate incubated for 2 hrs in presence of ATP by luminescence method
# [6] = molecular target: T1, Receptor-type tyrosine-protein kinase FLT3 (Homo sapiens, UniProt P36888); assay: Inhibition of human FLT3 (unknown origin) using poly(Glu,Tyr) as substrate incubated for 2 hrs in presence of ATP by luminescence method
# T1 sequence (P36888 whole entry): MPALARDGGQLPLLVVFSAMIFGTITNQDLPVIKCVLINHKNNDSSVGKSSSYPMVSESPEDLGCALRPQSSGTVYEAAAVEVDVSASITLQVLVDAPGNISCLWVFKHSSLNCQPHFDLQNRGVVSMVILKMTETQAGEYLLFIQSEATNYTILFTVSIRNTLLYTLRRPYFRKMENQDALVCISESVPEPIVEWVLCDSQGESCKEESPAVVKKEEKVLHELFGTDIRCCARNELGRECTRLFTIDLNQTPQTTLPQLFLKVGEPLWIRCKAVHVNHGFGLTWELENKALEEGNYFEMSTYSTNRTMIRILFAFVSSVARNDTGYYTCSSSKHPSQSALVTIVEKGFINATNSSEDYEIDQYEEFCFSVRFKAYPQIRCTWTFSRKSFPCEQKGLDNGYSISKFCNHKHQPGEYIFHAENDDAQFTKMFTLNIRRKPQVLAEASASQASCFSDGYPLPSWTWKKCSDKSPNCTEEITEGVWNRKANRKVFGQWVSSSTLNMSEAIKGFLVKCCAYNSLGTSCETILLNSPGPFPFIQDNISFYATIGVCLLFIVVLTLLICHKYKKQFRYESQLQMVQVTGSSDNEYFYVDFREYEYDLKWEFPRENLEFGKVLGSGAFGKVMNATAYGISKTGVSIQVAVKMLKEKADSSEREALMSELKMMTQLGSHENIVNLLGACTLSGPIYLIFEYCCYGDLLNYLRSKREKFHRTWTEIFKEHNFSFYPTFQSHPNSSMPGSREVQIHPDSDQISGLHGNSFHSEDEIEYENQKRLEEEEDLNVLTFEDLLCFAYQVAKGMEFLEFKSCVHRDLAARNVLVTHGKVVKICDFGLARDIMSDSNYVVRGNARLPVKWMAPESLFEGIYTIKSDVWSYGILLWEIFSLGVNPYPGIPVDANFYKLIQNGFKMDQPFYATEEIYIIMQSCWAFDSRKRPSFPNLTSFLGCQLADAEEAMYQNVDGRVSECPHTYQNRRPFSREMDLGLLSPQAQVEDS
# [7] = molecular target: Prostaglandin E2 receptor EP2 subtype (Homo sapiens, UniProt P43116); assay: Agonist activity at human EP2 receptor expressed in HEK293 cells; type: functional, cell-based
# [8] = Activation of Myosin ATPase activity in bovine Cardio-myofibril; parameters: species or system Bos taurus
# Sequence of Structural capsid protein (Q76129 whole entry): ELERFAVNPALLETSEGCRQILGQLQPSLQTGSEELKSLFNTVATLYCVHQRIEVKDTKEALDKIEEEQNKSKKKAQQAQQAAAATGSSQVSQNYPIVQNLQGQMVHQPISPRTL
# Sequence of Lanosterol 14-alpha demethylase (P10613 whole entry): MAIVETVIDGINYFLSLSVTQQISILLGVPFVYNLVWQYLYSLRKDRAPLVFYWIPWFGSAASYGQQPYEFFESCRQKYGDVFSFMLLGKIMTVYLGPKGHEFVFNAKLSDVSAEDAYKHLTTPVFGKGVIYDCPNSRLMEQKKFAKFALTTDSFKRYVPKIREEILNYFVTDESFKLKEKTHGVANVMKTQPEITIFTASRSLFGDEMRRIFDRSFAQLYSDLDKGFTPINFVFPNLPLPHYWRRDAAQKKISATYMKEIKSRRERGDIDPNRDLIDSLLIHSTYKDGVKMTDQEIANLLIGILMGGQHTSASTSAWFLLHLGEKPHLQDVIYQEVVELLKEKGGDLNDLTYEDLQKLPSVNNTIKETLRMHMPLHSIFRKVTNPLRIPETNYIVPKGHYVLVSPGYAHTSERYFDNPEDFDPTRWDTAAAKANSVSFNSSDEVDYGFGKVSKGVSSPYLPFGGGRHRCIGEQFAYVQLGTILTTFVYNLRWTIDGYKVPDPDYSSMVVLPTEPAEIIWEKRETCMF
# Sequence of Prostaglandin E2 receptor EP2 subtype (P43116 whole entry): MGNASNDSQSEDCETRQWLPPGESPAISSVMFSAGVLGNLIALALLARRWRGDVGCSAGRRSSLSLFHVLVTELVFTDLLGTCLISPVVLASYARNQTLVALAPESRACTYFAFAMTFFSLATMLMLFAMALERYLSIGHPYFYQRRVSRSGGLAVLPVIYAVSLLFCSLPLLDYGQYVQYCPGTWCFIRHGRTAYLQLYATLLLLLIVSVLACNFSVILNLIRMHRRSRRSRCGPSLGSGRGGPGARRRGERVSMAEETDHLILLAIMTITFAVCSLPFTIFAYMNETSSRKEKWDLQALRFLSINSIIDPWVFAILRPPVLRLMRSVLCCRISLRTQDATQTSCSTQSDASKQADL
# Sequence of Tyrosine-protein kinase JAK2 (O60674 whole entry): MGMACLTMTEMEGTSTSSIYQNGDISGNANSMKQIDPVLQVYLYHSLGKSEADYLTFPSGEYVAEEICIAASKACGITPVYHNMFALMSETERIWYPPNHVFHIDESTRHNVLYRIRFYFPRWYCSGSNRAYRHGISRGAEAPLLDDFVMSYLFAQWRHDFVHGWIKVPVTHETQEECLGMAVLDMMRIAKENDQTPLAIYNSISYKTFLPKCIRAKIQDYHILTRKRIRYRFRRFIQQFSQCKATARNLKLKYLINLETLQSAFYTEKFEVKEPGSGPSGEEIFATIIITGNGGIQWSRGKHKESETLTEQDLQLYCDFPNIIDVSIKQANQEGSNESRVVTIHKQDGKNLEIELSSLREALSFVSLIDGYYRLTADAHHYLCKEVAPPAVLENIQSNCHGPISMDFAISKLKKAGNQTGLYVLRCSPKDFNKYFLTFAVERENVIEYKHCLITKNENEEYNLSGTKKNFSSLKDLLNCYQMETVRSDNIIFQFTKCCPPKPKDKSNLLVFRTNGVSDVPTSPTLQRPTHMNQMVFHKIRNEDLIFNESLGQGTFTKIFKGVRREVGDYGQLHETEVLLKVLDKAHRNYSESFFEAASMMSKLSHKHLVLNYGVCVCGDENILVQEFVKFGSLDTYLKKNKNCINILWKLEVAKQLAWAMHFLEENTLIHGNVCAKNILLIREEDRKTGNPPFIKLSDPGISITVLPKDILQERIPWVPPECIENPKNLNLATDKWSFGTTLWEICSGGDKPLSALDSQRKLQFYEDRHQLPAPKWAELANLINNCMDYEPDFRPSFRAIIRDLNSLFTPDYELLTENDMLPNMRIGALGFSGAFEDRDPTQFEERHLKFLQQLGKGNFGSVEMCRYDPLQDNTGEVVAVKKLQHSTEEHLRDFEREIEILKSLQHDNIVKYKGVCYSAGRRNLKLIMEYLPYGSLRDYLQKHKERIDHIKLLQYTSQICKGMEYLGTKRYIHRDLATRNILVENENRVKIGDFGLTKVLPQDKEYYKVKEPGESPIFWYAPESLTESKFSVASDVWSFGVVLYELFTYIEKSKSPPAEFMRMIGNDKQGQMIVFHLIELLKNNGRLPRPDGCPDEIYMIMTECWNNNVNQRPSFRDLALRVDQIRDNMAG
SMILES,EC50 [2] [nM],further results
O[C@@](Cn1cnnn1)(c1ccc(F)cc1F)C(F)(F)c1ccc(-c2ccc(OCC(F)(F)F)cc2)cn1 [OTESECONAZOLE],–,Kd [1]: ≤ 39 nM
CC(C)(C#Cc1ccc(-c2ccc(Cl)c3c(NS(C)(=O)=O)nn(CC(F)(F)F)c23)c([C@H](Cc2cc(F)cc(F)c2)NC(=O)Cn2nc(C(F)(F)F)c3c2C(F)(F)[C@@H]2C[C@H]32)n1)S(C)(=O)=O,0.05,–
Cc1[nH]c2ccccc2c1CC(=O)N[C@@H](Cc1ccccc1)C(=O)N(C)c1ccccc1,–,half-life [3]: 3 min
CC(=O)[C@H]1CC[C@H]2[C@@H]3CC[C@H]4C[C@](C)(O)CC[C@]4(C)[C@H]3CC[C@]12C [GANAXOLONE],–,Ki [4]: 790 nM
Cn1nc(NS(C)(=O)=O)c2cccc(-c3cccnc3[C@H](Cc3cc(F)cc(F)c3)NC(=O)Cn3nc(C(F)(F)F)c4c3C(F)(F)[C@@H]3C[C@H]43)c21,12,–
COc1cc(-c2ccnc(Nc3cccc(N(C)C)c3)n2)ccc1O,–,IC50 [5]: 23 nM; IC50 [6]: 22 nM
CC(C)OC(=O)CNc1cccc(CN(Cc2ccc(-n3cccn3)cc2)S(=O)(=O)c2cccnc2)n1 [OMIDENEPAG ISOPROPYL],–,EC50 [7]: 1.1 nM
NC(=O)c1cccc(-c2cccnc2[C@H](Cc2cc(F)cc(F)c2)NC(=O)Cn2nc(C(F)(F)F)c3c2C(F)(F)[C@@H]2C[C@H]32)c1,167,–
Cn1nc(N)c2cccc(-c3cccnc3[C@H](Cc3cc(F)cc(F)c3)NC(=O)Cn3nc(C(F)(F)F)c4c3C(F)(F)[C@@H]3C[C@H]43)c21,19,–
COc1ccc(N(C)C(=O)[C@H](Cc2ccccc2)NC(=O)Cc2c[nH]c3ccc(O)cc23)cc1,52,–
CC(C)n1c(=O)cc(N[C@@H](C)c2ccccc2)[nH]c1=O,–,EC50 [8]: 711 nM
NC(=O)c1cccc(-c2cccnc2[C@H](Cc2cc(F)cc(F)c2)NC(=O)Cc2c[nH]c3ccc(O)cc23)c1,150,–
Cn1nc(NS(C)(=O)=O)c2c(Cl)ccc(-c3ccc(C#CC(C)(C)S(C)(=O)=O)nc3[C@H](Cc3cc(F)cc(F)c3)NC(=O)Cn3nc(C(F)(F)F)c4c3C(F)(F)[C@@H]3C[C@H]43)c21,0.2,–
